# Measured values from PubChem BioAssay (NCI).
#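 How tested: cells in 96-well plates exposed to compound for 48 hours at five concentrations. At the TGI there is no net growth.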
# Columns and labels:
# Assay in all cases: NCI anticancer screen, dose series, 48 h
# [1] = system: SK-OV-3 ovarian
# [2] = system: UACC-257 melanoma
# [3] = system: SF-268 CNS
# [4] = system: SN12C renal
# [5] = system: LOX IMVI melanoma
# [6] = system: A498 renal
# [7] = system: OVCAR-8 ovarian
# [8] = system: SK-MEL-28 melanoma
# [9] = system: PC-3 prostate
# [10] = system: M14 melanoma
# [11] = system: OVCAR-5 ovarian
# [12] = system: SR leukemia
# [13] = system: HT29 colon
# [14] = system: CAKI-1 renal
# [15] = system: SF-539 CNS
# [16] = system: SNB-19 CNS
# [17] = system: SW-620 colon
# [18] = system: SK-MEL-5 melanoma
# [19] = system: OVCAR-4 ovarian
# [20] = system: HL-60(TB) leukemia
# [21] = system: ACHN renal
# [22] = system: RXF 393 renal
# [23] = system: NCI/ADR-RES ovarian
# [24] = system: DU-145 prostate
# [25] = system: HCC-2998 colon
# [26] = system: MDA-MB-231 breast
# [27] = system: NCI-H522 lung
# [28] = system: IGROV1 ovarian
# [29] = system: RPMI-8226 leukemia
# [30] = system: EKVX NSCLC
# [31] = system: TK-10 renal
# [32] = system: NCI-H460 lung
# [33] = system: HOP-92 NSCLC
# [34] = system: NCI-H23 lung
# [35] = system: HOP-62 NSCLC
# [36] = system: T-47D breast
# [37] = system: HS 578T breast
# [38] = system: HCT-116 colon
# [39] = system: MDA-MB-435
# [40] = system: OVCAR-3 ovarian
# [41] = system: 786-0 renal
# [42] = system: U251 CNS
# [43] = system: SNB-75 CNS
# [44] = system: A549 NSCLC
# [45] = system: SF-295 CNS
# [46] = system: KM12 colon
# [47] = system: HCT-15 colon
# [48] = system: SK-MEL-2 melanoma
# [49] = system: MOLT-4 leukemia
# [50] = system: NCI-H226 lung
# [51] = system: UO-31 renal
# [52] = system: MALME-3M melanoma
# [53] = system: K-562 leukemia
# [54] = system: MDA-N
# [55] = system: MCF7 breast
# [56] = system: CCRF-CEM leukemia
# [57] = system: COLO 205 colon
# [58] = system: UACC-62 melanoma
# [59] = system: BT-549 breast
structure (smiles),measurement,setting,value
Cc1cccc2c1CC1(C2)Cc2c(C)cccc2C1=O (stereo not given),TGI,[1],> 100 µM
same,TGI,[2],63.5 µM
same,TGI,[3],87.1 µM
same,TGI,[4],74.2 µM
same,TGI,[5],38.7 µM
same,TGI,[6],88.9 µM
same,TGI,[7],> 100 µM
same,TGI,[8],56.5 µM
same,TGI,[9],> 100 µM
same,TGI,[10],77.7 µM
same,TGI,[11],> 100 µM
same,TGI,[12],37.4 µM
same,TGI,[13],97.2 µM
same,TGI,[14],48.6 µM
same,TGI,[15],57.1 µM
same,TGI,[16],> 100 µM
same,TGI,[17],> 100 µM
same,TGI,[18],33.7 µM
same,TGI,[19],> 100 µM
same,TGI,[20],52.6 µM
same,TGI,[21],84.3 µM
same,TGI,[22],38.1 µM
same,TGI,[23],> 100 µM
same,TGI,[24],77.3 µM
same,TGI,[25],65.1 µM
same,TGI,[26],53.7 µM
same,TGI,[27],59.3 µM
same,TGI,[28],> 100 µM
same,TGI,[29],43 µM
same,TGI,[30],72.8 µM
same,TGI,[31],92.1 µM
same,TGI,[32],83.2 µM
same,TGI,[33],41.9 µM
same,TGI,[34],> 100 µM
same,TGI,[35],54.5 µM
same,TGI,[36],> 100 µM
same,TGI,[37],> 100 µM
same,TGI,[38],35.7 µM
same,TGI,[39],55.8 µM
same,TGI,[40],51.1 µM
same,TGI,[41],70.2 µM
same,TGI,[42],65.4 µM
same,TGI,[43],70.7 µM
same,TGI,[44],> 100 µM
same,TGI,[45],68.8 µM
same,TGI,[46],51.5 µM
same,TGI,[47],> 100 µM
same,TGI,[48],38.3 µM
same,TGI,[49],30.2 µM
same,TGI,[50],61 µM
same,TGI,[51],> 100 µM
same,TGI,[52],49.7 µM
same,TGI,[53],70.3 µM
same,TGI,[54],61.8 µM
same,TGI,[55],94.7 µM
same,TGI,[56],56.9 µM
same,TGI,[57],29.7 µM
COc1ccc2c(c1)OCC1Cc3ccccc3OC21 (stereo not given),TGI,[1],> 100 µM
same,TGI,[2],> 100 µM
same,TGI,[3],> 100 µM
same,TGI,[4],> 100 µM
same,TGI,[5],> 100 µM
same,TGI,[6],> 10 µM
same,TGI,[7],> 100 µM
same,TGI,[58],> 100 µM
same,TGI,[9],> 100 µM
same,TGI,[10],> 100 µM
same,TGI,[11],> 100 µM
same,TGI,[59],> 100 µM
same,TGI,[12],> 100 µM
same,TGI,[13],> 100 µM
same,TGI,[14],> 100 µM
same,TGI,[15],> 100 µM
same,TGI,[17],> 100 µM
same,TGI,[18],> 10 µM
same,TGI,[20],> 100 µM
same,TGI,[21],> 100 µM
same,TGI,[23],> 100 µM
same,TGI,[24],> 100 µM
same,TGI,[25],> 100 µM
same,TGI,[26],> 100 µM
same,TGI,[27],> 100 µM
same,TGI,[28],> 100 µM
same,TGI,[29],> 100 µM
same,TGI,[30],> 100 µM
same,TGI,[31],> 100 µM
same,TGI,[33],> 100 µM
same,TGI,[34],> 100 µM
same,TGI,[35],> 100 µM
same,TGI,[36],> 100 µM
same,TGI,[38],> 100 µM
same,TGI,[39],> 100 µM
same,TGI,[40],> 100 µM
same,TGI,[41],> 100 µM
same,TGI,[42],> 10 µM
same,TGI,[43],> 100 µM
same,TGI,[44],> 100 µM
same,TGI,[45],> 100 µM
same,TGI,[46],> 100 µM
same,TGI,[47],> 100 µM
same,TGI,[48],> 100 µM
same,TGI,[49],> 100 µM
same,TGI,[50],> 100 µM
same,TGI,[51],> 100 µM
same,TGI,[52],> 100 µM
same,TGI,[53],> 100 µM
same,TGI,[54],> 10 µM
same,TGI,[55],> 100 µM
same,TGI,[56],> 100 µM
same,TGI,[57],> 100 µM
